Source: article PMC3527734, “Peripheral injections of melanin-concentrating hormone receptor 1 antagonist S38151 decrease food intake and body weight in rodent obesity models” (Frontiers in Endocrinology, 2012)
Where two headings read alike, the source gives them in different places. Where a SMILES comes first, the peptide text is derived from it.

Assays:
[1] = stability in TRIS buffer pH 7.4; type: physicochemical; conditions: pH 7.4, Tris buffer pH 7.4, 40 μM, LC-MS/MS, representative of three experiments, read-out: % S38151 remaining
Protocol: (§1) First, S38151 was incubated for 16 h at 4°C and 37°C in mouse plasma or in TRIS buffer (pH 7.4). Next, plasma proteins were precipitated with two volumes of acetonitrile. After centrifugation and dilution with a water/acetonitrile mixture (50/50 v/v), the supernatant was injected onto a triple quadripole mass spectrometer (Ultima, Micromass WATERS Corporation, Milford, USA). The liquid chromatographic system consisted of an Agilent 1100 analytic pump (Agilent, Santa Clara, USA) equipped with an Alpha Mos CTC autosampler (Alpha Mos, Toulouse, France). Mass detection was performed using the m/z transition 743.5 > 163, in positive electrospray. A second stability study was performed at a lower concentration (1 μM) and for 4 h, with the following sampling times: 0, 15, 45, 90, and 240 min. At each sampling time, 50 μL of plasma were precipitated with two volumes of acetonitrile, and after centrifugation were directly injected onto the LC-MS/MS system. The same treatment was used for the buffer samples.
Figure 2 Studies regarding the stability of S38151. A solution of S38151 (40 μM) was incubated with either Tris buffer, pH 7.4 (hatched bars), or mouse plasma samples (dark bars) for 16 h at 4°C or 37°C. The samples were analyzed using liquid chromatography coupled to mass spectrometry. Experiments were repeated three times. The chart presented is representative of the experimental results. […]

Zucker fa/fa rats = conditions: cyclophosphamide 100 mg/kg i.p., S38151 20 nmol/kg (28 μg/kg) i.c.v., n = 8
Protocol: These experiments were performed with modifications to previously described methods (Madden et al., [1999]). Rats were individually housed in wire-bottomed plastic cages with free access to both food pellets (6 mm diameter A03 UAR) and kaolin powder. The food pellets were presented in a small porcelain bowl on the floor of the cage. The kaolin powder was presented in a metal feeding dish attached to the inside of the cage. After a 2-week habituation period to these conditions, the animals were randomized into five treatment groups based on the quantity of food eaten during the stabilization period. In addition, those rats that consistently spilled the kaolin powder were eliminated from the study. One day after randomization, the animals were injected just before the beginning of the dark phase with either cyclophosphamide (100 mg/kg, i.p.), or S38151 [20 nmol/kg (28 μg/kg) i.c.v.] or vehicle [(artificial CSF) i.c.v.]. After injection, the quantity of kaolin and food ingested during the following 24-h period was determined. Food or kaolin spilled by the animals was collected at the end of the experiment, and total food and kaolin intake measurements were corrected for this loss.
Figure 5 The effects of S38151 on conditioned taste aversion and pica in Zucker fa/fa rats. (A) In the conditioned taste aversion test, after a period of habituation of the animals to the experimental protocol, Zucker fa/fa rats were presented with 0.2% saccharine for 20 min after drinking water was removed from their cages for 18 h (test day 0). Animals were then injected (i.p.) with vehicle or lithium chloride, or with S38151 (20 nmol/kg, i.c.v). On test days 4, 7, 11, and 14, rats were presented with 0.2% saccharine, and the quantity consumed during a 20-min period was determined. Results are expressed as mean ± SEM (n = 10–11 rats per group). […] (B) In the pica test, Zucker fa/fa rats were injected (i.c.v.) with 20 nmol/kg S38151, or an equivalent volume of artificial cerebrospinal fluid vehicle. Food and kaolin intake during the following 24-h period were each measured. Results are expressed as mean ± SEM (n = 8 rats per group).

[2] = detection of compound in brain of treated animals; type: in vivo; conditions: brains from S38151-treated (i.p.-injected) animals, LC-MS/MS, data not shown
Protocol: as §1
Furthermore, we were unable to detect traces of this pseudopeptide in the brains of i.p.-injected animals. Similarly, its effect could not be correlated with aversion owing to a bad test.

ob/ob mice = test: daily i.p. S38151 in ob/ob mice; type: in vivo, mouse
Protocol: In these studies, 13-week-old female C57BL/6J, ob/ob, and MCH1-KO mice were used. The mice were maintained on a 12-h light/dark cycle (lights on at 07:30 and off at 19:30) at 22 ± 3°C, and supplied with food pellets (6 mm diameter A03, UAR Laboratory chow, Epinay Villemuisson France) and tap water ad libitum. To induce obesity in C57BL/6J (creating diet-induced obese, or DIO, mice), mice were fed a high-fat diet (60 kcal% fat, 20 kcal% protein, 20 kcal% carbohydrate, ref D12492 from Research Diets, New Brunswick, NJ08901, USA) for 8 weeks starting at 4 weeks of age. In these experiments, DIO mice, ob/ob mice, and MCH^−/−1 mice were individually housed in a modular chamber that was placed on an activity platform to concurrently measure the food intake, water intake, and activity of the mice (ADDENFI, Les Cordeliers, Paris, France). For at least 2 weeks before experimentation, mice were habituated to a diet of 6 mm diameter food pellets of the following composition: 67.5% food flour, 26.5% sucrose, 5% gum tragacanth, 1.25% magnesium stearate (A03 UAR, Orge, France), and to i.p. injection. After this habituation period, food intake, drink intake, and body weight were measured for 3 consecutive days. The mice were randomized into three groups based on their food and water intake over the three preceding 24-h periods, and on their body weight. Next, the quantity of food eaten over each 24-h period during the 5 days of i.p. treatment with S38151 [10 and 30 mg/kg/day (7 and 20 μmol/kg/day)] or vehicle was determined and corrected for spillage.
Figure 8 The effects of repeated daily S38151 injection on food and water intake, body weight, and motility in ob/ob mice. Genetically modified ob/ob mice were administered S38151 (10 and 30 mg/kg, i.p.) or vehicle (normal saline i.p.) for 6 consecutive days. Results are expressed as mean ± SEM (n = 8 mice per group). White squares for controls, dark squares for 10 mg/kg, and dark triangles for 30 mg/kg.

In the case of `CSCC[C@@H]1NC(=O)[C@@H](NC(=O)c2ccc(NC(=N)N)cc2)CSSC[C@@H](C(=O)N[C@@H](Cc2c[nH]c3ccccc23)C(=O)O)NC(=O)[C@@H]2CCCN2C(=O)[C@H](CCCNC(=N)N)NC(=O)[C@H](Cc2ccc(O)cc2)NC(=O)[C@H](C(C)C)NC(=O)[C@H](CCCNC(=N)N)NC(=O)[C@H](CC(C)C)NC1=O` [S38151, p-guanidinobenzoyl-(Des-Gly10)-MCH (7–17)] (HELM PEPTIDE1{[N=C(N)Nc1ccc(C(=O)[*:2])cc1].C.M.L.R.V.Y.R.P.C.W}$PEPTIDE1,PEPTIDE1,2:R3-10:R3$$$V2.0; C-terminus assumed), the remaining at 16 h, 40 μM ([1]; 4°C) is reported as 79%, the remaining at 16 h, 40 μM ([1]; 37°C) is reported as 32% and the “kaolin intake, 24 h, pica test” value (Zucker fa/fa rats; vehicle 0.05 ± 0.01 g) is reported as “did not significantly alter”. The “food intake, 24 h, pica test” value (Zucker fa/fa rats; vehicle 27 ± 1 g) was “significantly reduced”, the “amount of compound detectable in the brain” value [2] was “none was detected” and the glycemia and insulinemia (ob/ob mice; S38151 30 mg/kg i.p., day 6, data not shown) was “significant reductions”. The body weight (ob/ob mice; S38151 10 and 30 mg/kg i.p. daily for 6 days, 30 mg/kg significant at days 1, 4, 5, 6) was “dose-dependent reduction”, the water intake (ob/ob mice; S38151 10 and 30 mg/kg i.p. daily for 6 days, same profile as food intake) was “did not reach statistical significance” and the food intake (ob/ob mice; S38151 10 and 30 mg/kg i.p. daily for 6 days, significant from day 3 only at 30 mg/kg, n = 8) was “dose-dependent inhibition”.
